One data set deals with human BRCA1 promoter. The data set is described as follows: BRCA1-luciferase reporter assay (Steady-Glo) in stably transfected MCF7 cells. It counts as cell-based. The settings on record: for EC50 / EC90: Homo sapiens, MCF7-BRCA1-luciferase cells, dilution series; for EC50: MCF7, 48 h; for EC90 / BRCA1-luciferase activity (in words): 48 hours; for BRCA1-luciferase activity (in words): MCF7 pGL4.14-hBRCA1.3 cells. On the procedure:
Hygromycin selected MCF7 cells were seeded in 384-well tissue culture plates. The first two columns of each plate were empty so as to include established positive and negative controls. Each of the remaining 352 wells contained a compound to be screened. MCF7 cells were incubated with the compounds for 48 hours. Luciferase activity was measured using the Steady Glo Luciferase Assay System (Promega). Briefly, 5×10^6 MCF7 cells were transfected with […] of purified pGL4.14 containing the human BRCA1 promoter (pGL4.14-hBRCA) with Effectene as per manufacturers protocol (Qiagen). Stable transfectants were selected with […] Hygromicin B. 1×10^5 or 2×10^5 stable transfectants were tested for luciferase activity with the Steady-Glo Luciferase Assay System (Promega).
Hygromycin selected MCF-7 cells (e.g., MCF7 clone pGL4.14-hBRCA1.3) stably transfected with the human BRCA1-luciferase reporter construct (e.g., pGL4.14-hBRCA1.3) were seeded in 384-well white tissue culture plates (Becton Dickenson, San Diego, Calif.) at 1×10^4 cells/well. These cells were then stimulated with indicated concentrations of genistein (Sigma-Aldrich, St. Louis, Mo.) for 0, 6, 9, 24 and 48 hours. Luciferase activity was measured using the Steady Glo Luciferase Assay System (Promega). The data shown in FIG. 3A is representative of 3 individual experiments.
Two different chemical libraries were screened for the ability to enhance BRCA1 gene expression. To examine the effects of each compound on BRCA1 expression, the human BRCA1 promoter was cloned and inserted upstream of the firefly luciferase gene in the plasmid pGL4.14 (BRCA1-Luc) (Promega), as described above. The ER positive human breast cancer cell line, MCF7, was transfected and stable transfectants were selected with hygromycin.
Briefly, compounds were plated in a 384 well plate in a total volume of 20 μl. A ten point dilution series was used at concentrations—100 µM, 10 μM, 1 μM, 100 nM, 10 nM, 1 nM, 0.1 nM, 0.01 nM, 0.0001 nM, 0 (DMSO vehicle only). A second dilution series of 100 μM, 32.5 μM, […], 3.6 μM, 1.2 μM, 400 nM, 132.2 nM, 45 nM, 14.8 nM, 5 nM, and 1.65 nM was also used. MCF7-BRCA1-luciferase cells were added to the compounds at a concentration of 1×10^4 cells/well in a volume of 25 μl. The 384 well plates, containing the compounds+cells, were then incubated at 37° C. for 48 hours. After 48 hours, luciferase activity was measured with the Steady-Glo® Luciferase Assay System (Promega, Madison, Wis.).

For a further data set, the system named is BRCA1 protein. The experiment in a line: BRCA1 protein expression in MCF7 cells by Western blot. It is filed as cell-based, human. The settings on record: 48 hours, compared to DMSO. On the procedure: Compounds 29 and 30 were studied for BRCA1 and actin (e.g., housekeeping gene for normalization) protein expression. Briefly, MCF7 cells (2×10^6) in 2 ml MEM were plated in a 6 well tissue culture plate and were either left nonstimulated or treated with DMSO (vehicle control), […] Genistein, or 3 different concentrations of indicated test compound—3.65 μM, […], 32.5 μM. Following incubation at 37° C. for 48 hours, the media was removed and the cells were washed 1× with 500 μl of ice cold PBS. Another 500 μl of ice cold PBS was then added and the cells were scraped off the well and transferred to a microcentrifuge tube. To ensure all cells were removed from the well, an additional […] of ice cold PBS was added to the well and any remaining cells were combined with the initial cell harvest into the microcentrifuge tube. The cells were then pelleted by centrifugation for 5 min at 3000 rpm, 4° C. The supernate was removed and the pellet was then lysed in 150 μl of ice cold RIPA buffer+1× protease inhibitors, on ice for 30 minutes, vortexing occasionally. The cellular debris was then removed by centrifugation for 20 minutes at 11,000 rpm, 4° C. The remaining supernate, containing the extracted proteins, was then transferred to a microcentrifuge tube and quantified using the Bio-Rad DC assay. 100 μg of protein+1×SDS-PAGE sample buffer was loaded onto an 8% Tris glycine gel. The proteins were separated in a tris glycine running buffer at 125 volts for 90 minutes. The proteins were then transferred out of the gel onto PVDF in an overnight transfer with 20% methanol at 35 volts, 4° C. The PVDF membrane was then blocked with 5% milk/PBST (0.1%) for 1 hour at room temperature (RT). BRCA1 protein was detected using anti-BRCA1 (Ab-1, EMD Biosciences) at a 1:250 dilution in 3% milk/PBST, overnight at 4° C. […] To monitor equal protein loading, actin was detected using anti-actin at a 1:200,000 dilution in 5% milk/PBST for 1 hr at RT. […] Chemiluminescence was detected using the SuperSignal West Femto kit made by Pierce Biotechnology and the UVP imaging center. […]

The test system of the next data set is BRCA1 RNA. The experiment in a line: BRCA1 RNA expression in MCF7 cells by qRT-PCR (TaqMan, 18S normalised). It counts as cell-based, human. The settings on record: 48 hours, 3.65-32.5 μM, compared to DMSO and genistein. As for the experimental part:
Compounds 29 and 30 were studied for BRCA1 and 18S (e.g., housekeeping gene for normalization) RNA expression. Briefly, MCF7 cells (2×10^6) in 2 ml MEM were plated in a 6 well tissue culture plate and were either left nonstimulated or treated with DMSO (vehicle control), 10 μM Genistein, or 3 different concentrations of indicated test compound—3.65 μM, 10.8 μM, 32.5 μM. Following incubation at 37° C. for 48 hours, the media was removed and RNA was extracted per manufacturer's protocol using the RNeasy Plus RNA extraction kit made by Qiagen. Complementary DNA (cDNA) was generated per manufacturer's protocol from 1000 ng extracted RNA in a 60 μl volume using the High Capacity cDNA kit made by Applied Biosystems. Gene expression of BRCA1 and 18S was detected with the TaqMan Gene Expression assay kit made by Applied Biosystems. […] The […] reaction was run on either the ABI real time system 7500 or 7000 (see, Analysis of Relative Gene Expression Data Using Real-Time Quantitative PCR and the 2^−ΔΔCT Method. Kenneth J. Livak^a and Thomas D. Schmittgen^b, 1. ^a Applied Biosystems, Foster City, Calif., 94404 ^b Department of Pharmaceutical Sciences, College of Pharmacy, Washington State University, Pullman, Wash., 99164-6534. Methods, Volume 25, Issue 4, December 2001, Pages 402-408).

A further data set relates to MCF7 cells. The data set is described as follows: Cell viability of MCF7 cells (CellTiter 96 AQueous One). It is filed as cell-based, human. The settings on record: 48 hours. As for the experimental part:
Additionally, the compounds were tested for cell viability. Compounds were plated at 2× in 50 μl MEM in triplicate in a clear 96 well tissue culture plate. A ten point dilution series was used at concentrations—100 μM, 10 μM, 1 μM, 100 nM, […], 1 nM, 0.1 nM, 0.01 nM, 0.0001 nM, 0 (DMSO vehicle only). MCF7 cells (5×10^3) were added in a volume of 50 μl MEM to the appropriate wells, diluting the compounds to 1×. Cells were incubated at 37° C. for 48 hours. 20 μl of CellTiter 96® AQueous One Solution Reagent (Promega) was added to each well and incubated for 3 hours at 37° C. Absorbance was measured at 490 nm using the Perkin Elmer Victor 3V plate reader. Absorbance signals were normalized to DMSO vehicle control and were expressed as percent viable.

Results on 5 molecules are retold here after patent US8362072B2, “BRCA1-based breast or ovarian cancer treatment agents and methods of use” (University of Kansas, priority 2007, dated 2013).

For orientation: EC50 means the concentration that produces a half-maximal response. By EC90 is commonly meant the concentration needed for an effect of 90%. Low readings indicate an effect from little substance, high ones a need for much substance.

SMILES strings stand for the structures.

In the case of `Cc1ccc(OCC(=O)O/N=C(\N)c2ccccn2)c(C)c1` [Cmpd 29], in the data set with human BRCA1 promoter, the EC50 was 8.49 µM and the 90% effect level (EC90) was put at 91.8 µM. Also, the BRCA1 protein expression result with BRCA1 protein is recorded as “increase endogenous BRCA1”. In addition, the “BRCA1 RNA expression” value in the data set on BRCA1 RNA is listed as “increase BRCA1 RNA expression”.
Consider `Oc1c(F)cccc1/C=N/c1ccc2oc(-c3ccccc3)nc2c1` [Cmpd 1], for which, in the data set on human BRCA1 promoter, it took 6.82 µM to reach a half-maximal effect (EC50) and the 90% effect level (EC90) was put at 54.9 µM. The “toxicity (cell viability) compared to genistein” value with MCF7 cells is reported as “less toxic compared to genistein”.
The like results for `CC(C)(C)C(=O)Nc1cccc(C(=O)Nc2ccc(Cl)cc2)c1` [Cmpd 2] were, in that order, 70.5 µM, 967 µM and “less toxic compared to genistein”.
Turning to `O=c1c(-c2ccc(O)cc2)coc2cc(O)cc(O)c12` [Genistein, genistein, reference compound], in the data set on human BRCA1 promoter, the EC50 was 14.5 µM, it took 25 µM to reach the 90% level (EC90) and the “BRCA1-luciferase activity (in words)” value is “dose-dependent increase in BRCA1-luciferase activity”. Moreover, in the data set with human BRCA1 promoter (listed as genistein), the “BRCA1-luciferase activity (in words)” value is “increase in BRCA1-luciferase activity”. For the same molecule, in the data set on BRCA1 protein, the BRCA1 protein expression entry is on record as “increase in BRCA1 protein”.
In the case of `CCc1ccc(OCC(=O)O/N=C(\N)c2ccncc2)c(C)c1` [Cmpd 30], in the data set with human BRCA1 promoter, the response was half-maximal at 4.13 µM (EC50) and the EC90 came to 55.4 µM. Also, the BRCA1 protein expression entry with BRCA1 protein is “increase endogenous BRCA1”. Also, in the data set on BRCA1 RNA, the “BRCA1 RNA expression” value was “increase BRCA1 RNA expression”.
